Structures can show the parent of a compound that is named as a salt.
Biological target: T1, human 5-HT6 receptor (Homo sapiens, UniProt P50406)
T1 construct: expressed in transfected cells
Assay: Human 5-HT6 receptor binding assay (3H-LSD displacement)
Details: membranes from HEK-293 cells, 2 nM 3H-LSD
Experimental: The substance to be tested was either dissolved in methanol/Chremophor® (BASF-AG) or in dimethyl sulfoxide and then diluted with water to the desired concentration.
The compounds were dissolved in a concentration of 10^−2 M or 10^−3 M in DMSO. Further dilutions were performed in incubation buffer.
The procedure for the binding assay was based on the method of Monsma et al. (1993) Mol Pharmacol 43: 320-327. The binding reaction was carried out in a total volume of 0.250 ml for 60 min at 37° C. Membranes from HEK-293 cells stably expressing the human 5-HT6 receptor were incubated with 2 nM ^3H-LSD in the presence or absence of various concentrations of test compound for 60 min at 37° C. Non-specific binding was defined with 100 μM Serotonin (5-HT). Assays were performed in duplicate. Bound and free radioligand was separated by filtration and bound radioactivity determined by liquid scintillation counting.
The specific ligand binding to the receptors was defined as the difference between the total binding and the nonspecific binding determined in the presence of an excess of unlabelled 5-HT. The results are expressed as a percent of control specific binding obtained in the presence of compound. The IC50 values (concentration causing a half-maximal inhibition of control specific binding) and Hill coefficients (nH) were determined by non-linear regression analysis of the competition curves using Hill equation curve fitting.
The inhibition constants (Ki) were calculated from the Cheng Prusoff equation (Ki=IC50/(1+(L/KD)), where L=concentration of radioligand in the assay, and KD=affinity of the radioligand for the receptor).

T1 sequence (P50406 whole entry): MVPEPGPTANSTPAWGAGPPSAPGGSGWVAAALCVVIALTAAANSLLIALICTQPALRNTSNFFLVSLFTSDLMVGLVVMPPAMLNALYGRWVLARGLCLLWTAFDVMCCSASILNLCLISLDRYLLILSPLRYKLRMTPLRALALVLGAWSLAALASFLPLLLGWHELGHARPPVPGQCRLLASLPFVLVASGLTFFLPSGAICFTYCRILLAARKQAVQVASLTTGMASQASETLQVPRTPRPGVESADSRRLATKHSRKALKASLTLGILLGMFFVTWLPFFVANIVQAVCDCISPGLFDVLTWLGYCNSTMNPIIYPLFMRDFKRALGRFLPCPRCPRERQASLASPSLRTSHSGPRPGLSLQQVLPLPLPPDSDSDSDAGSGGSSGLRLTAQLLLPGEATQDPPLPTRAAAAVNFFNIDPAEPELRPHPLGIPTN

Ki [µM]	SMILES
0.01 to 0.05	CCCN1CC[C@@H](c2ccc(NS(=O)(=O)c3cccc(OC(F)(F)F)c3)cc2)C1 [Example 1, 3-Trifluoromethoxy-N-[4-((S)-1-propyl-pyrrolidin-3-yl)-phenyl]-benzenesulfonamide and its hydrochloride]
0.001 to 0.01	O=S(=O)(Nc1cccc(C2CCNC2)c1)c1cccc(OC(F)(F)F)c1 (stereo not shown) [Example 6, N-(3-Pyrrolidin-3-yl-phenyl)-3-trifluoromethoxy-benzenesulfonamide]
0.01 to 0.05	CCCN1CCC(c2cc(NS(=O)(=O)c3cccc(OC(F)(F)F)c3)ccc2OC)C1 (stereo not shown) [Example 8, N-[4-Methoxy-3-(1-propyl-pyrrolidin-3-yl)-phenyl]-3-trifluoromethoxy-benzenesulfonamide]
0.001 to 0.01	O=S(=O)(Nc1ccc(C2CNC2)cc1)c1cccc(C(F)(F)F)c1 [Example 11, N-(4-Azetidin-3-yl-phenyl)-3-trifluoromethyl-benzenesulfonamide]
0.01 to 0.05	O=S(=O)(Nc1cccc(C2CNC2)c1)c1cccs1 [Example 12, Thiophene-2-sulfonic acid (3-azetidin-3-yl-phenyl)-amide]
0.001 to 0.01	O=S(=O)(Nc1cccc(C2CNC2)c1)c1cc(Cl)cc(Cl)c1 [Example 18, N-(3-Azetidin-3-yl-phenyl)-3,5-dichloro-benzenesulfonamide]
< 0.001	COc1ccc(Br)cc1S(=O)(=O)Nc1cccc(C2CNC2)c1 [Example 20, N-(3-Azetidin-3-yl-phenyl)-5-bromo-2-methoxy-benzenesulfonamide]
0.05 to 0.15	O=S(=O)(Nc1cccc(C2CNC2)c1)c1ccc(S(=O)(=O)c2ccccc2)s1 [Example 21, 5-Benzenesulfonyl-thiophene-2-sulfonic acid (3-azetidin-3-yl-phenyl)-amide]
0.001 to 0.01	COc1ccc(C)cc1S(=O)(=O)Nc1cccc(C2CNC2)c1 [Example 22, N-(3-Azetidin-3-yl-phenyl)-2-methoxy-5-methyl-benzenesulfonamide]
0.01 to 0.05	CSc1nccc(-c2ccc(S(=O)(=O)Nc3cccc(C4CNC4)c3)s2)n1 [Example 23, 5-(2-Methylsulfanyl-pyrimidin-4-yl)-thiophene-2-sulfonic acid (3-azetidin-3-yl-phenyl)-amide]
0.05 to 0.15	N#Cc1cccc(S(=O)(=O)Nc2cccc(C3CNC3)c2)c1 [Example 24, N-(3-Azetidin-3-yl-phenyl)-3-cyano-benzenesulfonamide]
0.001 to 0.01	Cc1c(S(=O)(=O)Nc2ccc(C3CNC3)cc2)sc2ccc(Cl)cc12 [Example 26, 5-Chloro-3-methyl-benzo[b]thiophene-2-sulfonic acid (4-azetidin-3-yl-phenyl)-amide]
0.001 to 0.01	O=S(=O)(Nc1cccc(C2CNC2)c1)c1cccc(OC(F)(F)F)c1 [Example 32, N-(3-Azetidin-3-yl-phenyl)-3-trifluoromethoxy-benzenesulfonamide]
0.05 to 0.15	CCCN1CC(c2ccc(NS(=O)(=O)c3cc(Cl)sc3Cl)cc2)C1 [Example 46, 2,5-Dichloro-thiophene-3-sulfonic acid [4-(1-propyl-azetidin-3-yl)-phenyl]-amide]
0.01 to 0.05	CCCN1CC(c2ccc(NS(=O)(=O)c3ccc(Cl)s3)cc2)C1 [Example 47, 5-Chloro-thiophene-2-sulfonic acid [4-(1-propyl-azetidin-3-yl)-phenyl]-amide]
0.01 to 0.05	CCCN1CC(c2ccc(NS(=O)(=O)c3cccc(Cl)c3)cc2)C1 [Example 48, 3-Chloro-N-[4-(1-propyl-azetidin-3-yl)-phenyl]-benzenesulfonamide]

More lines, now with the values behind:

SMILES	Ki [µM]
O=S(=O)(Nc1cccc([C@@H]2CCNC2)c1)c1cccc(OC(F)(F)F)c1 [Example 7, N—((S)-3-Pyrrolidin-3-yl-phenyl)-3-trifluoromethoxy-benzene sulfonamide]	0.001 to 0.01
Cc1c(S(=O)(=O)Nc2cccc(C3CNC3)c2)sc2ccc(Cl)cc12 [Example 9, 5-Chloro-3-methyl-benzo[b]thiophene-2-sulfonic acid (3-azetidin-3-yl-phenyl)-amide]	0.001 to 0.01
Cc1nc(-c2cccc(S(=O)(=O)Nc3cccc(C4CNC4)c3)c2)cs1 [Example 10, N-(3-Azetidin-3-yl-phenyl)-3-(2-methyl-thiazol-4-yl)-benzenesulfonamide]	0.001 to 0.01
O=S(=O)(Nc1cccc(C2CNC2)c1)c1cc(C(F)(F)F)cc(C(F)(F)F)c1 [Example 13, N-(3-Azetidin-3-yl-phenyl)-3,5-bis-trifluoromethyl-benzenesulfonamide]	0.01 to 0.05
COc1ccc(OC)c(S(=O)(=O)Nc2cccc(C3CNC3)c2)c1 [Example 14, N-(3-Azetidin-3-yl-phenyl)-2,5-dimethoxy-benzenesulfonamide]	0.001 to 0.01
O=S(=O)(Nc1cccc(C2CNC2)c1)c1cccc(F)c1 [Example 15, N-(3-Azetidin-3-yl-phenyl)-3-fluoro-benzenesulfonamide]	0.001 to 0.01
O=S(=O)(Nc1cccc(C2CNC2)c1)c1cc(Cl)sc1Cl [Example 16, 2,5-Dichloro-thiophene-3-sulfonic acid (3-azetidin-3-yl-phenyl)-amide]	0.001 to 0.01
O=S(=O)(Nc1cccc(C2CNC2)c1)c1cccc(Cl)c1 [Example 17, N-(3-Azetidin-3-yl-phenyl)-3-chloro-benzenesulfonamide]	< 0.001
Cc1cccc(S(=O)(=O)Nc2cccc(C3CNC3)c2)c1 [Example 19, N-(3-Azetidin-3-yl-phenyl)-3-methyl-benzenesulfonamide]	0.001 to 0.01
COc1cccc(S(=O)(=O)Nc2cccc(C3CNC3)c2)c1 [Example 25, N-(3-Azetidin-3-yl-phenyl)-3-methoxy-benzenesulfonamide]	0.001 to 0.01
O=S(=O)(Nc1cccc(C2CNC2)c1)c1cccc(C(F)(F)F)c1 [Example 31, N-(3-Azetidin-3-yl-phenyl)-3-trifluoromethyl-benzenesulfonamide]	0.001 to 0.01
CCCN1CC[C@@H](c2ccc(NS(=O)(=O)c3cccc([C@H](C)C(F)F)c3)cc2)C1 [Example 34, 3-((S)-2,2-Difluoro-1-methyl-ethyl)-N-[4-((S)-1-propyl-pyrrolidin-3-yl)-phenyl]-benzenesulfonamide]	0.01 to 0.05
CCCN1CC(c2ccc(NS(=O)(=O)c3cc(Cl)ccc3Cl)cc2)C1 [Example 40, 2,5-Dichloro-N-[4-(1-propyl-azetidin-3-yl)-phenyl]-benzenesulfonamide]	0.05 to 0.15
CCCN1CC(c2ccc(NS(=O)(=O)c3cc(C(F)(F)F)cc(C(F)(F)F)c3)cc2)C1 [Example 42, N-[4-(1-Propyl-azetidin-3-yl)-phenyl]-3,5-bis-trifluoromethyl-benzenesulfonamide]	0.05 to 0.15
CCCN1CC(c2ccc(NS(=O)(=O)c3cc(C)ccc3C)cc2)C1 [Example 43, 2,5-Dimethyl-N-[4-(1-propyl-azetidin-3-yl)-phenyl]-benzenesulfonamide]	0.01 to 0.05
CCCN1CC(c2ccc(NS(=O)(=O)c3ccc(F)c(Cl)c3)cc2)C1 [Example 44, 3-Chloro-4-fluoro-N-[4-(1-propyl-azetidin-3-yl)-phenyl]-benzenesulfonamide]	0.05 to 0.15
CCCN1CC(c2ccc(NS(=O)(=O)c3cccc(F)c3)cc2)C1 [Example 45, 3-Fluoro-N-[4-(1-propyl-azetidin-3-yl)-phenyl]-benzenesulfonamide]	0.01 to 0.05
CCCN1CC(c2ccc(NS(=O)(=O)c3cc(Cl)cc(Cl)c3)cc2)C1 [Example 49, 3,5-Dichloro-N-[4-(1-propyl-azetidin-3-yl)-phenyl]-benzenesulfonamide]	0.01 to 0.05

— patent publication US8642642B2, “Heterocyclic arylsulphones suitable for treating disorders that respond to modulation of the serotonin 5HT6 receptor” (Abbott Laboratories, priority 2006, dated 2014)
